pKd: −log10 of the molar value. Activity calls are given as the source filed them. For most assays here, no stated cut-off is given here; in the data, actives have a measured Kd and inactives only a lower limit.

The target in assay [1] is Dual specificity protein kinase CLK1 (Homo sapiens, UniProt P49759).
In assay [2] the target is T1, Acyl-CoA dehydrogenase family member 11 (Homo sapiens, UniProt Q709F0).
T1 sequence (Q709F0 whole entry): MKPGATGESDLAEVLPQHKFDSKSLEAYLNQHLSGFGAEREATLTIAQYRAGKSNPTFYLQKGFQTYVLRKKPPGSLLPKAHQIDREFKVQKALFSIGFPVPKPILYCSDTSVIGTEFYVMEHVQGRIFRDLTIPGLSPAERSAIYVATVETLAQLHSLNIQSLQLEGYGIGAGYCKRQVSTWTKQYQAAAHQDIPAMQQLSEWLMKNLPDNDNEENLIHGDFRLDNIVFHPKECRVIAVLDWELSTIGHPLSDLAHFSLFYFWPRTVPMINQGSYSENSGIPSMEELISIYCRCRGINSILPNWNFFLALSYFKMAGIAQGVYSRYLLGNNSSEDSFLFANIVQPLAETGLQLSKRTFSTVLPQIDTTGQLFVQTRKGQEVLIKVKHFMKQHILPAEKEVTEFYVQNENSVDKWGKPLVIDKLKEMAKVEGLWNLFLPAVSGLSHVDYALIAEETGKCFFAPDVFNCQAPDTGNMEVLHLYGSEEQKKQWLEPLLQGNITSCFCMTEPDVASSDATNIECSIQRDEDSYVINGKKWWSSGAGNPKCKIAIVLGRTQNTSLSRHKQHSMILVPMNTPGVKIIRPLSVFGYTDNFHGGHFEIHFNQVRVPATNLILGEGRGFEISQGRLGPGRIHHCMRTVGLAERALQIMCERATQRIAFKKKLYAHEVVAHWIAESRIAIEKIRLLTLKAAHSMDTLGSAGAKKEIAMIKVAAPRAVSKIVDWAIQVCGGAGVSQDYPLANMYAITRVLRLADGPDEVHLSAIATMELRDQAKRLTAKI

Assay [3] deals with Serine/threonine-protein kinase/endoribonuclease IRE1 (Homo sapiens, UniProt O75460).
In assay [4] the target is RAC-alpha serine/threonine-protein kinase (Homo sapiens, UniProt P31749).
Assay [5] addresses T2, Cysteine--tRNA ligase, cytoplasmic (Homo sapiens, UniProt P49589).
T2 sequence (P49589 whole entry): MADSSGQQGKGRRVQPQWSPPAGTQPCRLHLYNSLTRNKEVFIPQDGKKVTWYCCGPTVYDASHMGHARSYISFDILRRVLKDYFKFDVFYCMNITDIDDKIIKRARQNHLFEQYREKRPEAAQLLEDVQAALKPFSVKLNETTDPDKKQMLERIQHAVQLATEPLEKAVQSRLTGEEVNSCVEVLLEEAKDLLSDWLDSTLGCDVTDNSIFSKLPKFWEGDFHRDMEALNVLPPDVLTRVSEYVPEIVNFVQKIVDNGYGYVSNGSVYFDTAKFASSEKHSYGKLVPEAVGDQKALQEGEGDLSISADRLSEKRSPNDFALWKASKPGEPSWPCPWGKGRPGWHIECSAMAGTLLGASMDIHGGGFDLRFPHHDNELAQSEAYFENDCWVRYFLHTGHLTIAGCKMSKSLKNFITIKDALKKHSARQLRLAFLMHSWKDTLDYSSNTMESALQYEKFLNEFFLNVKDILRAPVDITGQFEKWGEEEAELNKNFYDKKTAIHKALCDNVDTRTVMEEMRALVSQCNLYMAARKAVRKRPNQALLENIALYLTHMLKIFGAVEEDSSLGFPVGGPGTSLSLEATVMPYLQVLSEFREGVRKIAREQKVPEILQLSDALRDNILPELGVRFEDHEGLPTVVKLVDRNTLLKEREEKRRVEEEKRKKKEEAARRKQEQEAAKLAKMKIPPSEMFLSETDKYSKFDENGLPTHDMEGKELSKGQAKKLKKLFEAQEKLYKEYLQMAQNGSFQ

In assay [6] the target is Serine/threonine-protein kinase 16 (Homo sapiens, UniProt O75716).
Assay [7] has as its target T3, ATP-dependent RNA helicase DDX42 (Homo sapiens, UniProt Q86XP3).
T3 sequence (Q86XP3 whole entry): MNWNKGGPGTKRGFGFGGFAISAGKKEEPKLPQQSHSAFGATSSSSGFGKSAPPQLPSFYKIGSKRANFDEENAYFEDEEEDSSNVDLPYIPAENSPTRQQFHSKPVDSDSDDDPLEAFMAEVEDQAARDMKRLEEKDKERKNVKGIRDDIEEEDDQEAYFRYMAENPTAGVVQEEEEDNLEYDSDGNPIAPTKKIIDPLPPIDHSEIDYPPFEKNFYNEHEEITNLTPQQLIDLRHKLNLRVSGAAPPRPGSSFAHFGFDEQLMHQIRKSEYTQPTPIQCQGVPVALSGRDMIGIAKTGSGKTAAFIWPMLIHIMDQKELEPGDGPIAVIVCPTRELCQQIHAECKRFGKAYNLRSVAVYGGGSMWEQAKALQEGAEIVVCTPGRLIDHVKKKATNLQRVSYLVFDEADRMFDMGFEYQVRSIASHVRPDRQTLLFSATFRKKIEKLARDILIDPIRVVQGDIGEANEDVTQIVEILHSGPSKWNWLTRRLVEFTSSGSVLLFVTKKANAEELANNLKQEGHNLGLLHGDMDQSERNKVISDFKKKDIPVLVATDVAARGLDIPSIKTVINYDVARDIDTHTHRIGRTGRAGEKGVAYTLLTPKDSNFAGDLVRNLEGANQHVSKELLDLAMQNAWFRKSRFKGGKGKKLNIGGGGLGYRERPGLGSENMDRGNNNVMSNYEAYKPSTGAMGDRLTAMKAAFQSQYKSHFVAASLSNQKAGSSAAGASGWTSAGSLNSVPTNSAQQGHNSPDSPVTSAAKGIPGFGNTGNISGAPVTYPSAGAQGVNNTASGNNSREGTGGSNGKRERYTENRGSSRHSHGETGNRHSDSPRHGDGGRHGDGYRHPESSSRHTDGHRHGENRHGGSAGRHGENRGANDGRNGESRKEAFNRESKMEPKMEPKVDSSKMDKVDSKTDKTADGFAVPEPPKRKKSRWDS

In assay [8] the target is Mitogen-activated protein kinase kinase kinase kinase 4 (Homo sapiens, UniProt O95819).
Assay [9] concerns the target Cyclin-dependent kinase 6 (Homo sapiens, UniProt Q00534).
Assay [10] deals with Citron Rho-interacting kinase (Homo sapiens, UniProt O14578).
Assay [11] deals with Insulin-like growth factor 1 receptor (Homo sapiens, UniProt P08069).
Chain of Insulin-like growth factor 1 receptor (P08069 31-736 limits assumed): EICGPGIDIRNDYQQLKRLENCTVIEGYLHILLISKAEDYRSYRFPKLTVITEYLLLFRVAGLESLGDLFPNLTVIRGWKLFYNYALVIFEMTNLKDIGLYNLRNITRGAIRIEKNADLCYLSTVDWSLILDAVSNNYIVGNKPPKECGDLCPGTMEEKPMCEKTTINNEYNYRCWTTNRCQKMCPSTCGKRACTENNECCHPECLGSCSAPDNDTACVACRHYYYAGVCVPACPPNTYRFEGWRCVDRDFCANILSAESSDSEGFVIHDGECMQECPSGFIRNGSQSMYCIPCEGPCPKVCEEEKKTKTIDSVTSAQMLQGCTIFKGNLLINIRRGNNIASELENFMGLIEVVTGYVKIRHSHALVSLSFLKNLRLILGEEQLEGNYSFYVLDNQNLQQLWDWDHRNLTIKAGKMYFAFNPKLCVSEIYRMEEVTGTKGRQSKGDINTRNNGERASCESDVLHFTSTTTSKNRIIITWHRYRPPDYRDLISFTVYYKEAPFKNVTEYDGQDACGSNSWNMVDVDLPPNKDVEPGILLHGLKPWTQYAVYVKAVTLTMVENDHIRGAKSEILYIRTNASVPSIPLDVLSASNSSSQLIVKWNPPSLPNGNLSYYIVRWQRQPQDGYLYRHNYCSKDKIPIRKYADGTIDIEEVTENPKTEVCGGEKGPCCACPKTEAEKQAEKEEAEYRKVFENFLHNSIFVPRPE
Chain of Insulin-like growth factor 1 receptor (P08069 741-1367 limits assumed): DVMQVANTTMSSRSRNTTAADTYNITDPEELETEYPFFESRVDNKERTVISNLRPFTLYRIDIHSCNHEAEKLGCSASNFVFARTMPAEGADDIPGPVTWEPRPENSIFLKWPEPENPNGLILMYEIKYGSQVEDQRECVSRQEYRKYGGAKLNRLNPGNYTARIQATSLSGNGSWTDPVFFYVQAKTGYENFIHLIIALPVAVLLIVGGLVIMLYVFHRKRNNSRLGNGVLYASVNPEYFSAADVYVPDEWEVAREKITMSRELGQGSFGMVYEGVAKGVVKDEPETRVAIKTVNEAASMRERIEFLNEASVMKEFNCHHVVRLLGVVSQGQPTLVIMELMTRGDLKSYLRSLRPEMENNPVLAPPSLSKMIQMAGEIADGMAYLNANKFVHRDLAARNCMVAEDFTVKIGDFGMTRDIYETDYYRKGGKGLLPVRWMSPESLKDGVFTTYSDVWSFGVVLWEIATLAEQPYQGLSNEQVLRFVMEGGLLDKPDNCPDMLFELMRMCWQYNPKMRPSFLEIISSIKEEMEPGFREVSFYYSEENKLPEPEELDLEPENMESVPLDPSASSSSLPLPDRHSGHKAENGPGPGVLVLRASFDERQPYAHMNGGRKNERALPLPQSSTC

Chain of Dual specificity protein kinase CLK1 (P49759 whole entry): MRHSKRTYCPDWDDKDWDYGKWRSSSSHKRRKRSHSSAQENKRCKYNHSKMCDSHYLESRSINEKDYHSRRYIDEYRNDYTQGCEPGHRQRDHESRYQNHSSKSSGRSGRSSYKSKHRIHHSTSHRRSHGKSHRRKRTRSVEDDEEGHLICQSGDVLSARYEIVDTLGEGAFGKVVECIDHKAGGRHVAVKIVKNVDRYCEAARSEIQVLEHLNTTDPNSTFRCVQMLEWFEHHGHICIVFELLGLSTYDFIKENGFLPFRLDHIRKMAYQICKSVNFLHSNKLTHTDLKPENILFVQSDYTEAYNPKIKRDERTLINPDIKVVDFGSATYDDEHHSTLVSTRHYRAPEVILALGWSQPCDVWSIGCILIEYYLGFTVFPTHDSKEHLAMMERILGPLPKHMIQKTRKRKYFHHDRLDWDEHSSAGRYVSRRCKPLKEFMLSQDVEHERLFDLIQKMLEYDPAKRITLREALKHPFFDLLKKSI
Chain of RAC-alpha serine/threonine-protein kinase (P31749 whole entry): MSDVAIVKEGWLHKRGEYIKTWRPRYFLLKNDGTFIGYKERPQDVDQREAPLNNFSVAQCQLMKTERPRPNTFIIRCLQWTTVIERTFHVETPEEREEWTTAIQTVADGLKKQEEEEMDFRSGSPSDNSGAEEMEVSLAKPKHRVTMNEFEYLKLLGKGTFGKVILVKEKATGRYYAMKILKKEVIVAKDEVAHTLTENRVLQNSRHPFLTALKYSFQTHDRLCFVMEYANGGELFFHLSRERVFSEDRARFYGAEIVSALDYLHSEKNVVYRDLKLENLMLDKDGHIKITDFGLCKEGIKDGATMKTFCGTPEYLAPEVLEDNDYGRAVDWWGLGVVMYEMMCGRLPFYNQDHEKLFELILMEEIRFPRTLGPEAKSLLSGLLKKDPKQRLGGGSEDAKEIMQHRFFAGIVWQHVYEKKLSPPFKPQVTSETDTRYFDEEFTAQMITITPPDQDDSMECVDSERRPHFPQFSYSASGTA
Chain of Serine/threonine-protein kinase 16 (O75716 whole entry): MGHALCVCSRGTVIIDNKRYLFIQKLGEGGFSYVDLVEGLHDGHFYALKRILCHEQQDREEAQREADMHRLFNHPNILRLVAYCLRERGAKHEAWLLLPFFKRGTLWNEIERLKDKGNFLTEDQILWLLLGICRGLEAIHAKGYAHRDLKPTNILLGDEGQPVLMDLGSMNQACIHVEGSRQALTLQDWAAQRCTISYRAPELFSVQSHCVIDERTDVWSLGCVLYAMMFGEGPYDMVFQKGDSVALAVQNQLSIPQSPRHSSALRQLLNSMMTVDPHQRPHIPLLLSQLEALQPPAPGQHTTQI
Chain of Mitogen-activated protein kinase kinase kinase kinase 4 (O95819 whole entry): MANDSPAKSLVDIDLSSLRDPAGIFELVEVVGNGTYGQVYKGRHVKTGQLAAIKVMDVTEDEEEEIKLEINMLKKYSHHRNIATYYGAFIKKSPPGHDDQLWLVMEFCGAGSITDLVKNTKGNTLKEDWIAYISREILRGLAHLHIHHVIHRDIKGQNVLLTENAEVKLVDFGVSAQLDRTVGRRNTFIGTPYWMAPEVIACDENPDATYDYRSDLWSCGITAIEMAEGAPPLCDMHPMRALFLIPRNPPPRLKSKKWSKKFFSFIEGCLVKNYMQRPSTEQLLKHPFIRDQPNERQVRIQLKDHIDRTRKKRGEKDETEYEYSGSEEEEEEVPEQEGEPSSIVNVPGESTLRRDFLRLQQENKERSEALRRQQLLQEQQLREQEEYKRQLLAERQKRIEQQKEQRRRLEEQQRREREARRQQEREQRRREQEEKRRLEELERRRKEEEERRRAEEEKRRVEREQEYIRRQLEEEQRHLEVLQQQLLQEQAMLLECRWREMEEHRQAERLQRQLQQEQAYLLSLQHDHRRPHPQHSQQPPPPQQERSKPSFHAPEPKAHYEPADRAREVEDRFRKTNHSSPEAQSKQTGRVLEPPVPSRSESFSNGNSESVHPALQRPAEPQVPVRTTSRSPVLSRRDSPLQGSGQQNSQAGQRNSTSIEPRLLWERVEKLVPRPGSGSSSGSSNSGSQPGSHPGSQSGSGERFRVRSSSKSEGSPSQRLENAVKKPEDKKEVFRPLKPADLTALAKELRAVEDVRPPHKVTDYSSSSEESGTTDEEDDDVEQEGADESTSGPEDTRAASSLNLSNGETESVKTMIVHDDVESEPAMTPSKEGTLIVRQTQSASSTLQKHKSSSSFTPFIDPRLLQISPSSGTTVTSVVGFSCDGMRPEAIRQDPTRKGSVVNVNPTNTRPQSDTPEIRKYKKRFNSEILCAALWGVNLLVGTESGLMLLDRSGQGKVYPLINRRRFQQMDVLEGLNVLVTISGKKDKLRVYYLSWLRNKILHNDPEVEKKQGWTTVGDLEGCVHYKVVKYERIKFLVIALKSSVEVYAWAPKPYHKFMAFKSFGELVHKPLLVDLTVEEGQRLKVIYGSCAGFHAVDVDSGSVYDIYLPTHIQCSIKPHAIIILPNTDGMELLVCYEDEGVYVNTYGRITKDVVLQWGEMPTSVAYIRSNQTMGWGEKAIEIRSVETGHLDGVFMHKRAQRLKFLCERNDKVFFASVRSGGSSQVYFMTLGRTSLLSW
Chain of Serine/threonine-protein kinase/endoribonuclease IRE1 (O75460 whole entry): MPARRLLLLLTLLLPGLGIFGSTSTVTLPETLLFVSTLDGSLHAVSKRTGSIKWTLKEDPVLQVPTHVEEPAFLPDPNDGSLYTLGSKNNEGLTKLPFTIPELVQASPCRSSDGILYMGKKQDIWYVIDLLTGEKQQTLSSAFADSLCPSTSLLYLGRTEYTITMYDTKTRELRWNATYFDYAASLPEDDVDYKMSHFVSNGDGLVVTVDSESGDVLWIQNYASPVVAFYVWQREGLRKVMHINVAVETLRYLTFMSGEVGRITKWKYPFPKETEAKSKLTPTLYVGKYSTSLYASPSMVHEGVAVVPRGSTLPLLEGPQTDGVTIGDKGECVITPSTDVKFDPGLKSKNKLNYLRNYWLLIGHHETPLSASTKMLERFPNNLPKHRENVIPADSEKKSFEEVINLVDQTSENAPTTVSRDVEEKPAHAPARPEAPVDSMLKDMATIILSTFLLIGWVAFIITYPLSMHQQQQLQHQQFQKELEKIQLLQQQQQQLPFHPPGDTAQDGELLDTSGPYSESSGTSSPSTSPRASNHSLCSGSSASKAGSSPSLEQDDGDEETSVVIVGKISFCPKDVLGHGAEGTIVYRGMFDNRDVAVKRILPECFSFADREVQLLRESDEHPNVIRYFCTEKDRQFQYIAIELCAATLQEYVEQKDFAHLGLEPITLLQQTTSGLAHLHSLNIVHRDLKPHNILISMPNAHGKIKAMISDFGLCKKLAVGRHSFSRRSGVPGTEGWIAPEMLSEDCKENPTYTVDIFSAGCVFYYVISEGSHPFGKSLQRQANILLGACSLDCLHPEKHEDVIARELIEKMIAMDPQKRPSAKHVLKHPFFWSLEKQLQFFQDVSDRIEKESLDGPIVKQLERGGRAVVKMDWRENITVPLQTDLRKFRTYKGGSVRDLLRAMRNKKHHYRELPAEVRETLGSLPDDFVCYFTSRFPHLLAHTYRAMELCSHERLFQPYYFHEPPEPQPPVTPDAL

The term Kd denotes the concentration at which binding is half-saturated. For the molecule `COc1ccc(-c2ccc3ncc4c(c3c2)n(-c2ccc(N3CCNCC3)c(C(F)(F)F)c2)c(=O)n4C)cn1` [BGT-226 FREE BASE], the Kd in [1] was 0.246 µM (active); in assay [2], > 30 µM (inactive); in assay [3], > 30 µM (inactive); in assay [4] it was > 30 µM (inactive); in assay [5], > 30 µM (inactive); in assay [6] it was > 30 µM (inactive). Moreover, the Kd in [7], in [8], in assay [9], in assay [10] and in assay [11] was > 30 µM (inactive) throughout.
Regarding `O=S(=O)(c1cccc2c(O)nccc12)N1CCCNCC1` [HYDROXYFASUDIL], the Kd was 24.1 µM (active) in [1]; > 30 µM (inactive) in [2]; > 30 µM (inactive) in assay [3]; > 30 µM (inactive) in assay [4]; > 30 µM (inactive) in assay [5]; > 30 µM (inactive) in assay [6]. The Kd in assay [7], in assay [8], in assay [9], in assay [10] and in assay [11] was > 30 µM (inactive) in each case.
Turning to `COc1cc2ncnc(Nc3ccc(O)cc3)c2cc1OC` [WHI-P131], the Kd in assay [1], in assay [2], in [3], in assay [4], in [5] and in assay [6] was > 30 µM (inactive) throughout. Besides, the Kd in [7], in assay [8], in assay [9], in assay [10] and in [11] was > 30 µM (inactive) each time.
Take `S=C(NCc1ccc2c(c1)OCO2)N1CCN(c2ncnc3c2oc2ccccc23)CC1` [AMUVATINIB]: the Kd in [1], in assay [2], in [3], in assay [4], in assay [5] and in assay [6] was > 30 µM (inactive) in each case. In addition, the Kd in assay [7], in assay [8], in [9], in assay [10] and in assay [11] was > 30 µM (inactive) in each case.
Turning to `Cn1cc(-c2[nH]c3cc(NC(=O)[C@H](N)C4CCCCC4)cc4c3c2C=NNC4=O)cn1`, the Kd in [1], in assay [2], in assay [3], in assay [4], in assay [5] and in [6] was > 30 µM (inactive) each time. The Kd is > 30 µM (inactive) in assay [7]; > 30 µM (inactive) in assay [8]; > 30 µM (inactive) in [9]; 0.725 µM (active) in [10]; > 30 µM (inactive) in assay [11].
Broadly, the pKd is the negative decadic logarithm of the Kd, by convention in mol/L. Higher therefore signals a low Kd. Turning to `COCCN1CCN(Cc2ccc(-c3n[nH]c4c3C(=O)c3c(NC(=O)NN5CCOCC5)cccc3-4)cc2)CC1` [RGB-286638], the pKd in assay [1] is 8.70; in [6], 6.29; in assay [8] it was 6.90. In addition, the Kd in assay [2], in assay [3], in assay [4], in [5], in [7] and in assay [9] was > 30 µM (inactive) throughout. Also, the values for the Kd in assay [10] and in [11] were 0.763 µM (active) and > 30 µM (inactive), respectively.
For `C[C@@H]1COC(Nc2ccc3ncnc(Nc4ccc(OCc5nccs5)c(Cl)c4)c3c2)=N1` [VARLITINIB], the Kd in assay [1], in [2], in assay [3], in assay [4], in [5] and in [6] was > 30 µM (inactive) in each case. Also, the Kd in assay [7], in assay [8], in assay [9], in assay [10] and in [11] was > 30 µM (inactive) throughout.
For `O=C(NC[C@H](O)CO)c1ccncc1Nc1ccc(I)cc1F` [PIMASERTIB], the Kd in assay [1], in assay [2], in assay [3], in assay [4], in assay [5] and in assay [6] was > 30 µM (inactive) throughout. The Kd in assay [7], in assay [8], in assay [9], in [10] and in [11] was > 30 µM (inactive) throughout.
As to `CCc1cc2c(cc1N1CCC(N3CCOCC3)CC1)C(C)(C)c1[nH]c3cc(C#N)ccc3c1C2=O` [ALECTINIB], the Kd in [1] was 29.9 µM (active); in [2] it was > 30 µM (inactive); in assay [3], > 30 µM (inactive); in assay [4] it was > 30 µM (inactive); in assay [5], > 30 µM (inactive); in assay [6], > 30 µM (inactive). For the same molecule, the Kd in assay [7], in assay [8], in [9], in [10] and in assay [11] was > 30 µM (inactive) in each case.
As to `CC(C)CC(=O)Nc1[nH]nc2c1CN(C(=O)C1CCN(C)CC1)C2(C)C` [PHA-793887], the Kd in assay [1] is 2.18 µM (active); in assay [2] it was > 30 µM (inactive); in assay [3], > 30 µM (inactive); in assay [4], > 30 µM (inactive); in assay [5], > 30 µM (inactive); in [6], > 30 µM (inactive). The Kd in [7], in assay [8], in assay [9], in assay [10] and in assay [11] was > 30 µM (inactive) each time.

Source of the values: ChEMBL document CHEMBL3991601, “The target landscape of clinical kinase drugs” (Science, 2017).
